Measurements as given in paper PMC4538536, “In Silico-Based High-Throughput Screen for Discovery of Novel Combinations for Tuberculosis Treatment” (Antimicrobial Agents and Chemotherapy, 2015).
≈ marks a conversion by molar mass, not a printed value. Where two headings read alike, the source gives them in different places.

Key:
M. tuberculosis H37Rv [1] = assay: MIC determination, resazurin-based microplate assay; assay type: cell-based, Mycobacterium tuberculosis; conditions: Mycobacterium tuberculosis, single drug
M. tuberculosis H37Rv [2] = assay: In vitro bactericidal-effect analysis (CFU enumeration of checkerboard wells); assay type: cell-based, Mycobacterium tuberculosis; conditions: single drug at its MIC (FIC of 1); positive = reduction in CFU
Experimental: For determining the extent of the bactericidal effect, sample wells which remained blue in the resazurin microtiter assay (REMA) and whose ΣFICs were within the synergistic-to-additive range (<0.7 for doublets and <1.5 for triplets) were plated on Middlebrook 7H10 agar medium and incubated at 37°C for 21 to 28 days, following which bacterial colonies were enumerated to obtain the net reduction in CFU in comparison to the counts for the untreated controls at the start of drug testing, as well as to that achieved when M. tuberculosis was exposed to each drug alone.

[3] = In vivo pharmacokinetics in infected mice (plasma, LC-MS/MS); set-up: species or system BALB/c mice; conditions: mouse; for AUC(0-t) / Cmax: po, steady state, infected mice
Experimental: The drugs were formulated in 0.5% hydroxypropyl methyl cellulose (HPMC)–0.1% Tween 80 suspensions as 3- or 4-drug combinations. Formulations were prepared by weighing and adding each compound to the bottle, according to the design. Formulation vehicle was added, and the suspension was stirred overnight. Only uniform suspensions were used, while those that precipitated were abandoned. Formulations were prepared every week, and compound stability was estimated at the end of the week. Pharmacokinetics (PK) analysis was performed on infected mice on the 20th day of dosing. Blood samples were collected from each mouse at 0.5, 2, 4, 6, and 24 h after compound administration. Blood samples of about 30 μl were collected from mice in all groups by serial sampling via the saphenous vein into Microvette CB300 tubes (Starstedt, Germany) coated with EDTA, and plasma (10 μl) was separated following centrifugation. Plasma samples were stored at –20°C until analysis using liquid chromatography-tandem mass spectrometry (LC-MS/MS).
A 1-mg/ml stock solution of each compound was prepared in dimethyl sulfoxide (DMSO) for all of the analytes except PZA and LZD, for which the stock solution was 10 mg/ml in DMSO, and RIF, for which the stock solution was prepared in 50% acetonitrile in water. Three different sets of calibration standard (CS) combinations were prepared by 2-fold dilution of the stock solutions. CS set 1 contained analytes CLO, BDQ, PA824, PZA, and SQ109, CS set 2 contained analytes BTZ043, MXF, THI, EMB, and PZA, and CS set 3 contained LZD, INH, RIF, and PZA. A 16-point calibration curve was utilized for all analytes, and the standard curves ranged from 0.0005 to 20 μg/ml except for PZA and LZD, for which the standard curve range was 0.006 to 200 μg/ml. Plasma samples were precipitated by adding chilled acetonitrile (1:10, vol/vol) containing carbamazepine as an internal standard (10 ng/ml). Samples were vortexed and then centrifuged at 4,000 rpm for 30 min at 10°C. The resulting supernatant was mixed with the mobile phase (50% acetonitrile in water with 0.1% formic acid). Five microliters of the sample was injected on to a liquid chromatographic system (Acquity ultraperformance liquid chromatography [UPLC] system, Waters, Milford, MA) coupled to a triple-quadrupole mass spectrometer (Xevo TQ-S; Waters, Milford, MA). Samples were separated on an LC column (ACE 3 C18, 50 by 4.6 mm, 3 μm particle size; Advanced Chromatography Technologies, Aberdeen, Scotland) by isocratic elution with 40 parts of 20 mM ammonium formate containing 0.1% (vol/vol) formic acid and 60 parts of acetonitrile at a flow rate of 0.5 ml/min with a run time of 4 min. Samples were acquired in positive ion mode and detected by multiple reaction monitoring (MRM). The concentrations of the analyte were determined from a standard curve obtained by plotting known concentrations of the analyte against peak area ratios (analyte/internal standard peak response).
PK analyses of the plasma concentration-time relationships were performed with Phoenix software (version 6.2; Pharsight, USA). A noncompartmental analysis program, model 200, was used to calculate PK parameters. The maximum concentration of drug in plasma (Cmax), time to Cmax (Tmax), elimination half-life (t1/2), and area under the concentration-time curve (AUC) from time zero to infinity (AUC0–∞) were estimated. AUC was computed using the trapezoidal rule (linear up and log down), and the AUC0–∞ was considered only when the extrapolated AUC was not more than 20% of the original value. A minimum of three sample points in the terminal slope were used to calculate half-life.

[4] = in vivo, 25 mg/kg; cited from earlier work
[5] = BALB/c, plasma, 25 mg/kg, Group 5 triplet EMB 100/BDQ 25/SQ109 25 mg/kg oral, read-out: AUC0-24 in Triplet
[6] = BALB/c, plasma, 25 mg/kg, Group 5 triplet EMB 100/BDQ 25/SQ109 25 mg/kg oral, read-out: Cmax in Triplet
[7] = BALB/c, plasma, 50 mg/kg, Group 2 triplet SQ109 25/BDQ 25/PA824 50 mg/kg oral, read-out: AUC0-24 in Triplet
[8] = BALB/c, plasma, 50 mg/kg, Group 2 triplet SQ109 25/BDQ 25/PA824 50 mg/kg oral, read-out: Cmax in Triplet
[9] = BALB/c, plasma, 150 mg/kg, Group 2 quartet SQ109 25/BDQ 25/PA824 50/PZA 150 mg/kg oral, read-out: AUC0-24 in Quartet
[10] = BALB/c, plasma, 150 mg/kg, Group 2 quartet SQ109 25/BDQ 25/PA824 50/PZA 150 mg/kg oral, read-out: Cmax in Quartet
[11] = BALB/c, plasma, 150 mg/kg, Group 5 quartet EMB 100/BDQ 25/SQ109 25/PZA 150 mg/kg oral, read-out: AUC0-24 in Quartet
[12] = BALB/c, plasma, 150 mg/kg, Group 5 quartet EMB 100/BDQ 25/SQ109 25/PZA 150 mg/kg oral, read-out: Cmax in Quartet

## COc1nc2ccc(Br)cc2cc1[C@@H](c1ccccc1)[C@@](O)(CCN(C)C)c1cccc2ccccc12 [Bedaquiline]
M. tuberculosis H37Rv [1]
  MIC: 0.35 µM (≈ 0.194 µg/mL)
M. tuberculosis H37Rv [2]
  ΔLog10 CFU/ml at the MIC: 0.02 Log10 CFU/ml
[3]; [5]
  AUC(0-t): 22200 ± 1600 ng·h/mL
[3]; [6]
  Cmax: 2000 ± 600 ng/mL
[3]; BALB/c, plasma, 50 mg/kg, Group 1 triplet CFZ 20/BDQ 25/PA824 50 mg/kg oral, read-out: AUC0-24 in Triplet
  AUC(0-t): 21000 ± 1700 ng·h/mL
[3]; BALB/c, plasma, 50 mg/kg, Group 1 triplet CFZ 20/BDQ 25/PA824 50 mg/kg oral, read-out: Cmax in Triplet
  Cmax: 1600 ± 100 ng/mL
[3]; [7]
  AUC(0-t): 34900 ± 5800 ng·h/mL
[3]; [8]
  Cmax: 3600 ± 2800 ng/mL
[3]; BALB/c, plasma, 100 mg/kg, Group 8 triplet PA824 50/BDQ 25/EMB 100 mg/kg oral, read-out: AUC0-24 in Triplet
  AUC(0-t): 43300 ± 6000 ng·h/mL
[3]; BALB/c, plasma, 100 mg/kg, Group 8 triplet PA824 50/BDQ 25/EMB 100 mg/kg oral, read-out: Cmax in Triplet
  Cmax: 3100 ± 200 ng/mL
[3]; BALB/c, plasma, 150 mg/kg, Group 1 quartet CFZ 20/BDQ 25/PA824 50/PZA 150 mg/kg oral, read-out: AUC0-24 in Quartet
  AUC(0-t): 30900 ± 5200 ng·h/mL
[3]; BALB/c, plasma, 150 mg/kg, Group 1 quartet CFZ 20/BDQ 25/PA824 50/PZA 150 mg/kg oral, read-out: Cmax in Quartet
  Cmax: 2600 ± 500 ng/mL
[3]; [9]
  AUC(0-t): 31400 ± 5400 ng·h/mL
[3]; [10]
  Cmax: 2300 ± 500 ng/mL
[3]; [11]
  AUC(0-t): 21500 ± 1600 ng·h/mL
[3]; [12]
  Cmax: 1700 ± 700 ng/mL
[3]; BALB/c, plasma, 150 mg/kg, Group 7 quartet PA824 50/BDQ 25/MXF 400/PZA 150 mg/kg oral, read-out: AUC0-24 in Quartet
  AUC(0-t): 24600 ± 2900 ng·h/mL
[3]; BALB/c, plasma, 150 mg/kg, Group 7 quartet PA824 50/BDQ 25/MXF 400/PZA 150 mg/kg oral, read-out: Cmax in Quartet
  Cmax: 4500 ± 1300 ng/mL
[3]; BALB/c, plasma, 150 mg/kg, Group 8 quartet PA824 50/BDQ 25/EMB 100/PZA 150 mg/kg oral, read-out: AUC0-24 in Quartet
  AUC(0-t): 50700 ± 8900 ng·h/mL
[3]; BALB/c, plasma, 150 mg/kg, Group 8 quartet PA824 50/BDQ 25/EMB 100/PZA 150 mg/kg oral, read-out: Cmax in Quartet
  Cmax: 4200 ± 1500 ng/mL
[3]; BALB/c, plasma, 400 mg/kg, Group 7 triplet PA824 50/BDQ 25/MXF 400 mg/kg oral, read-out: AUC0-24 in Triplet
  AUC(0-t): 63200 ± 16700 ng·h/mL
[3]; BALB/c, plasma, 400 mg/kg, Group 7 triplet PA824 50/BDQ 25/MXF 400 mg/kg oral, read-out: Cmax in Triplet
  Cmax: 3600 ± 100 ng/mL

## CC(C)=CCC/C(C)=C/CNCCNC1C2CC3CC(C2)CC1C3 (centres unmarked) [SQ109]
M. tuberculosis H37Rv [1]
  MIC: 1.18 µM (≈ 0.39 µg/mL)
M. tuberculosis H37Rv [2]
  ΔLog10 CFU/ml at the MIC: 1.40 Log10 CFU/ml
[3]; BALB/c, plasma, oral, SQ109 25 mg/kg, EMB 100 mg/kg, in 3- and 4-drug combinations, read-out: observed AUC in combinations
  AUC: 2000 to 8900 ng·h/mL
[3]; [5]
  AUC(0-t): 7800 ± 4900 ng·h/mL
[3]; [6]
  Cmax: 5500 ± 5100 ng/mL
[3]; BALB/c, plasma, 25 mg/kg, Group 6 triplet BTZ043 37.5/THI 800/SQ109 25 mg/kg oral, read-out: AUC0-24 in Triplet
  AUC(0-t): 3100 ± 300 ng·h/mL
[3]; BALB/c, plasma, 25 mg/kg, Group 6 triplet BTZ043 37.5/THI 800/SQ109 25 mg/kg oral, read-out: Cmax in Triplet
  Cmax: 900 ± 500 ng/mL
[3]; [7]
  AUC(0-t): 8900 ± 3700 ng·h/mL
[3]; [8]
  Cmax: 5200 ± 2700 ng/mL
[3]; BALB/c, plasma, 130 mg/kg, Group 9 triplet EMB 100/SQ109 25/LZD 130 mg/kg oral, read-out: AUC0-24 in Triplet
  AUC(0-t): 4700 ± 1400 ng·h/mL
[3]; BALB/c, plasma, 130 mg/kg, Group 9 triplet EMB 100/SQ109 25/LZD 130 mg/kg oral, read-out: Cmax in Triplet
  Cmax: 900 ± 400 ng/mL
[3]; [9]
  AUC(0-t): 5100 ± 800 ng·h/mL
[3]; [10]
  Cmax: 3500 ± 1400 ng/mL
[3]; BALB/c, plasma, 150 mg/kg, Group 3 quartet BTZ043 37.5/SQ109 25/MXF 200/PZA 150 mg/kg oral, read-out: AUC0-24 in Quartet
  AUC(0-t): 1800 ± 400 ng·h/mL
[3]; BALB/c, plasma, 150 mg/kg, Group 3 quartet BTZ043 37.5/SQ109 25/MXF 200/PZA 150 mg/kg oral, read-out: Cmax in Quartet
  Cmax: 500 ± 200 ng/mL
[3]; [11]
  AUC(0-t): 4900 ± 100 ng·h/mL
[3]; [12]
  Cmax: 2700 ± 500 ng/mL
[3]; BALB/c, plasma, 150 mg/kg, Group 6 quartet BTZ043 37.5/THI 800/SQ109 25/PZA 150 mg/kg oral, read-out: AUC0-24 in Quartet
  AUC(0-t): 4900 ± 2200 ng·h/mL
[3]; BALB/c, plasma, 150 mg/kg, Group 6 quartet BTZ043 37.5/THI 800/SQ109 25/PZA 150 mg/kg oral, read-out: Cmax in Quartet
  Cmax: 3100 ± 2800 ng/mL
[3]; BALB/c, plasma, 150 mg/kg, Group 9 quartet EMB 100/SQ109 25/LZD 130/PZA 150 mg/kg oral, read-out: AUC0-24 in Quartet
  AUC(0-t): 7600 ± 3600 ng·h/mL
[3]; BALB/c, plasma, 150 mg/kg, Group 9 quartet EMB 100/SQ109 25/LZD 130/PZA 150 mg/kg oral, read-out: Cmax in Quartet
  Cmax: 3500 ± 3100 ng/mL
[3]; BALB/c, plasma, 200 mg/kg, Group 3 triplet BTZ043 37.5/SQ109 25/MXF 200 mg/kg oral, read-out: AUC0-24 in Triplet
  AUC(0-t): 2100 ± 800 ng·h/mL
[3]; BALB/c, plasma, 200 mg/kg, Group 3 triplet BTZ043 37.5/SQ109 25/MXF 200 mg/kg oral, read-out: Cmax in Triplet
  Cmax: 700 ± 500 ng/mL
[3]; in vivo
  plasma exposure in combination compared with individual (reported) exposure: higher
[4]
  reported AUC: 250 ng·h/mL
